Data from ChEMBL document CHEMBL5236586, “Novel ginsenoside derivatives induce apoptosis in HepG-2 cells via the MDM2-p53 signaling pathway” (Bioorg Med Chem Lett, 2022).
Activity calls are given as the source filed them. The calls are words filed in the database; no cut-off is given here.

Legend:
PC-3 = experiment: Antiproliferative activity against human PC-3 cells assessed as inhibition of cell proliferation by MTT assay; format: functional, cell-based
HepG2 [1] = experiment: Antiproliferative activity against human HepG2 cells assessed as inhibition of cell proliferation by MTT assay; format: functional, cell-based
A549 = experiment: Antiproliferative activity against human A549 cells assessed as inhibition of cell proliferation by MTT assay; format: functional, cell-based
[2] = Cytotoxicity against mouse L929 cells assessed as inhibition of cell proliferation by MTT assay; format: toxicity, cell-based
HepG2 [3] = experiment: Potency index, ratio of PD IC50 to test compound IC50 for antiproliferative activity against human HepG2 cells assessed as inhibition of cell proliferation by MTT assay; format: functional
HepG2 [4] = experiment: Effect on cell morphology in human HepG2 cells at 5 uM by DAPI staining based analysis; format: functional

Compound	IC50 (PC-3)	IC50 (HepG2 [1])	IC50 (A549)	IC50 [2]	Ratio IC50 (HepG2 [3])	Activity (HepG2 [4])
Cc1ccc2nc(SCC(=O)O[C@H]3CC[C@@]4(C)[C@@H](CC[C@]5(C)[C@H]4C[C@@H](O)[C@@H]4[C@H]([C@@]6(C)CCCC(C)(C)O6)CC[C@]45C)C3(C)C)[nH]c(=O)c2c1	> 100 µM	> 100 µM	> 100 µM	> 100 µM		
CC1(C)CCC[C@](C)([C@@H]2CC[C@]3(C)[C@@H]2[C@H](O)C[C@@H]2[C@@]4(C)CC[C@H](OC(=O)CSc5nc(-c6ccccc6)c(C#N)c(=O)[nH]5)C(C)(C)[C@@H]4CC[C@]23C)O1	9.82 µM	7.6 µM	8.9 µM	74.7 µM		
COc1ccc(-c2nc(SCC(=O)O[C@H]3CC[C@@]4(C)[C@@H](CC[C@]5(C)[C@H]4C[C@@H](O)[C@@H]4C([C@@]6(C)CCCC(C)(C)O6)CC[C@]45C)C3(C)C)[nH]c(=O)c2C#N)cc1 (stereo not given in full)	9.45 µM	5.09 µM	6.88 µM	76.3 µM		
CC1(C)CCC[C@](C)([C@@H]2CC[C@]3(C)[C@@H]2[C@H](O)C[C@H]2[C@@]4(C)CC[C@H](OC(=O)CSc5nc(-c6ccncc6)c(C#N)c(=O)[nH]5)C(C)(C)[C@@H]4CC[C@]23C)O1	15.8 µM	12.8 µM	17.3 µM	77.1 µM		
Cc1cccc(-c2nc(SCC(=O)O[C@H]3CC[C@@]4(C)[C@@H](CC[C@]5(C)[C@H]4C[C@@H](O)[C@@H]4[C@H]([C@@]6(C)CCCC(C)(C)O6)CC[C@]45C)C3(C)C)[nH]c(=O)c2C#N)c1	17 µM	14.1 µM	13.6 µM	77.1 µM		
CC1(C)CCC[C@](C)([C@@H]2CC[C@]3(C)[C@@H]2[C@H](O)C[C@H]2[C@@]4(C)CC[C@H](OC(=O)CSc5nc6cc(Cl)ccc6c(=O)[nH]5)C(C)(C)[C@@H]4CC[C@]23C)O1	> 100 µM	> 100 µM	> 100 µM	> 100 µM		
CC1(C)CCC[C@](C)([C@@H]2CC[C@]3(C)[C@@H]2[C@H](O)CC2[C@@]4(C)CC[C@H](OC(=O)CSc5nc(-c6ccc(F)cc6)c(C#N)c(=O)[nH]5)C(C)(C)[C@@H]4CC[C@]23C)O1 (stereo not given in full)	7.82 µM	7.75 µM	9.09 µM	76 µM		
CC1(C)CCC[C@](C)([C@@H]2CC[C@]3(C)[C@@H]2[C@H](O)C[C@H]2[C@@]4(C)CC[C@H](O)C(C)(C)[C@@H]4CC[C@]23C)O1	68.3 µM	59.2 µM	58.4 µM	> 100 µM		
CC1(C)CCC[C@](C)([C@@H]2CC[C@]3(C)[C@@H]2[C@H](O)C[C@H]2[C@@]4(C)CC[C@H](OC(=O)CSc5nc6ccc(Cl)cc6c(=O)[nH]5)C(C)(C)[C@@H]4CC[C@]23C)O1	> 100 µM	80.5 µM	> 100 µM	> 100 µM		
COc1cc(-c2nc(SCC(=O)O[C@H]3CC[C@@]4(C)[C@@H](CC[C@]5(C)[C@H]4C[C@@H](O)[C@@H]4C([C@@]6(C)CCCC(C)(C)O6)CC[C@]45C)C3(C)C)[nH]c(=O)c2C#N)cc(OC)c1OC (stereo not given in full)	13.3 µM	7.71 µM	7.6 µM	77.7 µM		
Cc1ccc(-c2nc(SCC(=O)O[C@H]3CC[C@@]4(C)[C@@H](CC[C@]5(C)[C@H]4C[C@@H](O)[C@@H]4[C@H]([C@@]6(C)CCCC(C)(C)O6)CC[C@]45C)C3(C)C)[nH]c(=O)c2C#N)cc1	7.73 µM	4.51 µM	6.77 µM	77.4 µM	12	
CC1(C)CCC[C@](C)(C2CC[C@]3(C)[C@@H]2[C@H](O)C[C@H]2[C@@]4(C)CC[C@H](OC(=O)CSc5nc(-c6c[nH]c7ccccc67)c(C#N)c(=O)[nH]5)C(C)(C)[C@@H]4CC[C@]23C)O1 (stereo not given in full)	10.8 µM	5.21 µM	7.17 µM	76.1 µM		
CC1(C)CCC[C@](C)([C@@H]2CC[C@]3(C)[C@@H]2[C@H](O)C[C@H]2[C@@]4(C)CC[C@H](OC(=O)CSc5nc6ccc([N+](=O)[O-])cc6c(=O)[nH]5)C(C)(C)[C@@H]4CC[C@]23C)O1	> 100 µM	59.8 µM	> 100 µM	> 100 µM		
CC1(C)CCC[C@](C)([C@@H]2CC[C@]3(C)[C@@H]2[C@H](O)CC2[C@@]4(C)CC[C@H](OC(=O)CSc5nc(-c6ccc(Cl)cc6)c(C#N)c(=O)[nH]5)C(C)(C)[C@@H]4CC[C@]23C)O1 (stereo not given in full)	7.42 µM	6.39 µM	6.79 µM	76.8 µM		
CC1(C)CCC[C@](C)([C@@H]2CC[C@]3(C)[C@@H]2[C@H](O)C[C@H]2[C@@]4(C)CC[C@H](OC(=O)CSc5nc(-c6cccc(O)c6)c(C#N)c(=O)[nH]5)C(C)(C)[C@@H]4CC[C@]23C)O1	20.8 µM	9.35 µM	14.3 µM	78.5 µM		
CC1(C)CCC[C@](C)([C@@H]2CC[C@]3(C)[C@@H]2[C@H](O)CC2[C@@]4(C)CC[C@H](OC(=O)CSc5nc(-c6cccc(F)c6)c(C#N)c(=O)[nH]5)C(C)(C)[C@@H]4CC[C@]23C)O1 (stereo not given in full)	8.19 µM	7.56 µM	6.98 µM	76 µM		
CC1(C)CCC[C@](C)([C@@H]2CC[C@]3(C)[C@@H]2[C@H](O)CC2[C@@]4(C)CC[C@H](OC(=O)CSc5nc(-c6ccc(Br)cc6)c(C#N)c(=O)[nH]5)C(C)(C)[C@@H]4CC[C@]23C)O1 (stereo not given in full)	9.72 µM	5.91 µM	7.51 µM	77 µM		
CC1(C)CCC[C@](C)([C@@H]2CC[C@]3(C)[C@@H]2[C@H](O)C[C@H]2[C@@]4(C)CC[C@H](OC(=O)CSc5nc6c(Cl)cccc6c(=O)[nH]5)C(C)(C)[C@@H]4CC[C@]23C)O1	62.3 µM	> 100 µM	> 100 µM	> 100 µM		
COc1cccc(-c2nc(SCC(=O)O[C@H]3CC[C@]4(C)[C@H]5C[C@@H](O)[C@@H]6[C@H]([C@@]7(C)CCCC(C)(C)O7)CC[C@@]6(C)[C@]5(C)CC[C@H]4C3(C)C)[nH]c(=O)c2C#N)c1	8.98 µM	6.85 µM	6.84 µM	64.5 µM		
O=c1[nH]cc(F)c(=O)[nH]1 [FLUOROURACIL]			29.2 µM	> 100 µM		inactive
CC1(C)CCC[C@](C)([C@@H]2CC[C@]3(C)[C@@H]2[C@H](O)C[C@H]2[C@@]4(C)CC[C@H](OC(=O)CSc5nc6ccc(F)cc6c(=O)[nH]5)C(C)(C)[C@@H]4CC[C@]23C)O1	> 100 µM	70.5 µM	56.6 µM	> 100 µM		
CC1(C)CCC[C@](C)([C@@H]2CC[C@]3(C)[C@@H]2[C@H](O)CC2[C@@]4(C)CC[C@H](OC(=O)CSc5nc(-c6cccc(Cl)c6)c(C#N)c(=O)[nH]5)C(C)(C)[C@@H]4CC[C@]23C)O1 (stereo not given in full)	8.44 µM	7.09 µM	7.14 µM	74.9 µM		
CC1(C)CCC[C@](C)([C@@H]2CC[C@]3(C)[C@@H]2[C@H](O)C[C@H]2[C@@]4(C)CC[C@H](OC(=O)CSc5nc6ccc(Br)cc6c(=O)[nH]5)C(C)(C)[C@@H]4CC[C@]23C)O1	> 100 µM	> 100 µM	> 100 µM	> 100 µM		
CC1(C)CCC[C@](C)([C@@H]2CC[C@]3(C)[C@@H]2[C@H](O)CC2[C@@]4(C)CC[C@H](OC(=O)CSc5nc(-c6ccc(C(F)(F)F)cc6)c(C#N)c(=O)[nH]5)C(C)(C)[C@@H]4CC[C@]23C)O1 (stereo not given in full)	8.74 µM	3.16 µM	7.03 µM	68.7 µM	21	
CC1(C)CCC[C@](C)([C@@H]2CC[C@]3(C)[C@@H]2[C@H](O)C[C@H]2[C@@]4(C)CC[C@H](OC(=O)CSc5nc6cccc(Cl)c6c(=O)[nH]5)C(C)(C)[C@@H]4CC[C@]23C)O1	> 100 µM	67.8 µM	83 µM	> 100 µM		
CC1(C)CCC[C@](C)([C@@H]2CC[C@]3(C)[C@@H]2[C@H](O)CC2[C@@]4(C)CC[C@H](OC(=O)CSc5nc(-c6cccc(Br)c6)c(C#N)c(=O)[nH]5)C(C)(C)[C@@H]4CC[C@]23C)O1 (stereo not given in full)	6.53 µM	5.95 µM	6.69 µM	70.3 µM		
